Converted amounts (≈) assume the structure as drawn.

The values that follow come from ChEMBL document CHEMBL1944520, “Discovery of 3-aryloxy-lactam analogs as potent androgen receptor full antagonists for treating castration resistant prostate cancer” (Bioorg Med Chem Lett, 2012).

In series [1] the target is T1, Androgen receptor (Homo sapiens) (UniProt P10275).
T1 sequence (whole entry): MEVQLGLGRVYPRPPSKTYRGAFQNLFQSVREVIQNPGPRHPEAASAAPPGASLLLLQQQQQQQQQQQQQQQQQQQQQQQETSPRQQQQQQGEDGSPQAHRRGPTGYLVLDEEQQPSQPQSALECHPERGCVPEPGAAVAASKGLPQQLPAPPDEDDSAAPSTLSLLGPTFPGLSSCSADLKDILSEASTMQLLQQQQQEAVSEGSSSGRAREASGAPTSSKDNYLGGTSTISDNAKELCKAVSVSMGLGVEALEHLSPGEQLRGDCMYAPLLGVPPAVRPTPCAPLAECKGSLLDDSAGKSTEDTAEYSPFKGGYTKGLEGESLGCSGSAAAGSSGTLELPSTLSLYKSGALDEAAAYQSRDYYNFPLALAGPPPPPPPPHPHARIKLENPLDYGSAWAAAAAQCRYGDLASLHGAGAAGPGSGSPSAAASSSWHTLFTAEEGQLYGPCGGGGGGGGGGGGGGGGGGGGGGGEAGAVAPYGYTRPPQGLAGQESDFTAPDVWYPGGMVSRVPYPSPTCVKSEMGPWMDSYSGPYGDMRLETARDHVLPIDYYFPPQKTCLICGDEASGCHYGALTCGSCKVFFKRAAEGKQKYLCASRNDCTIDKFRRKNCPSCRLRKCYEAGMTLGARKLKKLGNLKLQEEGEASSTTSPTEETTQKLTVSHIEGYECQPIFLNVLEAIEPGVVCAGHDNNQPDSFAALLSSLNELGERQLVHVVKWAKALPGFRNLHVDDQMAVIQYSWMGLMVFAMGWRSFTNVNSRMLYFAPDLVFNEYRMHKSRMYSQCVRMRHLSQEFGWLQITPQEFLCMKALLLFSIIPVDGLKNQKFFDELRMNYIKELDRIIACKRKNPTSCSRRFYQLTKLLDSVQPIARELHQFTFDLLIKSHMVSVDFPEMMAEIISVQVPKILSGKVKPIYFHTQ
The series can be described thus: Agonist activity at androgen receptor expressed in human LNAR cells as induction of luciferase activity by spectrophotometry relative to untreated control. Format: functional, cell-based.

In series [2] the target is T1, Androgen receptor (Homo sapiens). Briefly: Antagonist activity at androgen receptor expressed in human LNAR cells assessed as inhibition of R1881-induced luciferase activity at 1 uM by spectrophotometry. Type of series: functional, cell-based.
Series [3] is described as follows: Fraction unbound in human. Format: ADME, organism-based. The conditions noted are these: in vivo.
Series [4] addresses T1, Androgen receptor (Homo sapiens). The series can be described thus: Antagonist activity at androgen receptor expressed in human LNAR cells assessed as inhibition of R1881-induced luciferase activity at 0.1 uM by spectrophotometry. Type of series: functional, cell-based.
Series [5] in a line: Oral bioavailability in rat. Format: ADME, organism-based. As to conditions: in vivo.
Series [6] deals with Rattus norvegicus. The series can be described thus: Unbound plasma clearance in iv dosed rat. Format: ADME, organism-based. The conditions noted are these: in vivo.
Series [7] can be described thus: Solubility of the compound at pH 7.4. The conditions noted are these: buffer. Type of series: physicochemical.
In series [8] the test system is Liver microsomes. Briefly: Unbound intrinsic clearance in human liver microsomes. Type of series: ADME, Microsome. A general note: Liver microsomes are a subcellular fraction often used to study metabolism.
In series [9] the target is T2, Androgen receptor (Homo sapiens, UniProt P10275).
T2 sequence (P10275 whole entry): T1 sequence (whole entry)
The series can be described thus: Antagonist activity at androgen receptor expressed in human LNAR cells assessed as inhibition of R1881-induced luciferase activity by spectrophotometry. Type of series: functional, cell-based.

With `CC(CO)N1CC(C)(C)[C@@H](Oc2ccc(C#N)c(C(F)(F)F)c2)C1=O` (stereo in doubt; 15) [listing 1 of 2 here], the fold change (FC) in series [1] is 1.02.

Usually inhibition stands for the drop in the measured response relative to a control, in per cent. `CC(CO)CN1CC(C)(C)[C@@H](Oc2ccc(C#N)c(C(F)(F)F)c2)C1=O` (stereo in doubt; 22): the inhibition in series [2] was 96%. In series [1], the fold change (FC) amounted to 1.01.

The term fraction unbound denotes the share of the substance not bound to proteins or other matrix. Lower therefore signals little free substance. In general, bioavailability refers to the share of a dose that reaches the circulation, judged against a reference dose that is usually intravenous. A high value points to good availability. A word on the solubility: it is how much of the substance goes into solution per volume. For `C[C@@H](c1nnc(-c2ccccc2)o1)N1CC(C)(C)[C@@H](Oc2ccc(C#N)c(C(F)(F)F)c2)C1=O`, the fraction unbound in series [3] stood at 0.0181. In addition, the inhibition in series [4] is 62%. For the same compound, the fold change (FC) in [1] worked out at 3.09. This compound gave a bioavailability in [5] of 25%. Further, the CL free turned out to be 4294 mL/min/kg in series [6] and 43.87 µL/min/mg in series [8]. Further, in series [7], the concentration in solution (solubility) was 3.7 µg/mL (≈ 7.86 µM).

A word on the IC50: it is the concentration that inhibits the measured activity by half. Turning to `CC1(C)CN(CCC#N)C(=O)[C@@H]1Oc1ccc(C#N)c(C(F)(F)F)c1`, in series [3], the fraction unbound was 0.226. The fold change (FC) in [1] is 0.89. Also, the IC50 in series [9] worked out at 131 nM. In addition, the bioavailability in series [5] worked out at 64%. The CL free was 170 mL/min/kg in [6] and 19.1 µL/min/mg in [8]. In series [7], this compound gave a solubility of 57 µg/mL (≈ 162 µM).

In turn, `CC1(C)CN(Cc2nnc(-c3ccccc3)o2)C(=O)[C@@H]1Oc1ccc(C#N)c(C(F)(F)F)c1` had a fraction unbound in series [3] of 0.0127. In [1], the fold change (FC) turned out to be 0.95. Further, the half-maximal inhibitory concentration (IC50) in series [9] worked out at 71 nM. The bioavailability in series [5] was found to be 10%. Also, the CL free in [6] turned out to be 921 mL/min/kg; in series [8] it was 19.3 µL/min/mg. Also, the solubility in series [7] stood at 5.9 µg/mL (≈ 12.9 µM).

`CC(CO)CN1CC(C)(C)[C@@H](Oc2ccc(C#N)c(C(F)(F)F)c2)C1=O` (stereo in doubt; 23) [listing 1 of 2 here]: the fold change (FC) in [1] turned out to be 0.95.

`CC1(C)CNC(=O)[C@@H]1Oc1ccc(C#N)c(C(F)(F)F)c1`: the fold change (FC) in series [1] amounted to 1.31. For the same compound, the 50% inhibitory concentration (IC50) in series [9] came to 105 nM.

On to `CC1(C)CN(CC#N)C(=O)[C@@H]1Oc1ccc(C#N)c(C(F)(F)F)c1`, for which, in series [2], the inhibition turned out to be 89%. Moreover, the fold change (FC) in series [1] amounted to 2.75.

For the compound `CCCCN1CC(C)(C)[C@@H](Oc2ccc(C#N)c(C(F)(F)F)c2)C1=O`, in [2], the inhibition is 85%. The fold change (FC) in series [1] stood at 2.12.

For the compound `CC(c1nnc(-c2cccc(F)c2)o1)N1CC(C)(C)C(Oc2ccc(C#N)c(C(F)(F)F)c2)C1=O` (racemic), the fraction unbound in [3] was found to be 0.00825. In [1], the fold change (FC) came out at 1.43. In addition, the IC50 in [9] worked out at 77 nM. This compound also had a bioavailability in series [5] of 10%. For the same compound, the figures for the CL free in series [6] and in series [8] were 1585 mL/min/kg and 115 µL/min/mg, respectively. In series [7], the concentration in solution (solubility) came to 3.8 µg/mL (≈ 7.78 µM).

On to `CCCN1CC(C)(C)[C@@H](Oc2ccc(C#N)c(C(F)(F)F)c2)C1=O`, for which the inhibition in series [2] came out at 88%. Further, the fold change (FC) in series [1] was determined as 1.45.

Take `CC(O)(CO)CN1CC(C)(C)[C@@H](Oc2ccc(C#N)c(C(F)(F)F)c2)C1=O` (stereo in doubt; 25): the inhibition in series [2] is 27%. For the same compound, the fold change (FC) in series [1] is 0.92.

Regarding `CC1(C)CN(CCC#N)C(=O)[C@@H]1Oc1ccc(C#N)c(Cl)c1`, the fold change (FC) in series [1] turned out to be 0.99. The IC50 in [9] came out at 68 nM. The solubility in [7] was determined as 159 µg/mL (≈ 500 µM).

Turning to `CC(O)(CO)CN1CC(C)(C)[C@@H](Oc2ccc(C#N)c(C(F)(F)F)c2)C1=O` (stereo in doubt; 24), the inhibition in series [2] worked out at 17%. Further, the fold change (FC) in series [1] came out at 1.01.

As to `CC(CO)N1CC(C)(C)[C@@H](Oc2ccc(C#N)c(C(F)(F)F)c2)C1=O` (stereo in doubt; 15) [listing 2 of 2 here], in series [9], the IC50 is 337 nM.

As to `CC(O)CN1CC(C)(C)[C@@H](Oc2ccc(C#N)c(C(F)(F)F)c2)C1=O` (single isomer, unassigned) [listing 1 of 2 here], in series [9], the half-inhibitory concentration (IC50) was found to be 977 nM.

For `CC1(C)CN(CCC#N)C(=O)[C@@H]1Oc1ccc(C#N)cc1`, the inhibition in [2] was determined as 10%. Further, the fold change (FC) in series [1] is 0.95.

Turning to `COC(=O)CN1CC(C)(C)C(Oc2ccc(C#N)c(C(F)(F)F)c2)C1=O` (racemic), the fold change (FC) in series [1] worked out at 1.05. In addition, the IC50 in [9] was 303 nM.

As for `CC1(C)CN(CCCO)C(=O)[C@@H]1Oc1ccc(C#N)c(C(F)(F)F)c1`, the inhibition in [2] stood at 87%. Further, the fold change (FC) in series [1] came out at 1.11.

In the case of `Cc1nnc(CN2CC(C)(C)[C@@H](Oc3ccc(C#N)c(C(F)(F)F)c3)C2=O)o1`, the fold change (FC) in [1] was determined as 0.97. Also, the half-maximal inhibitory concentration (IC50) in series [9] turned out to be 633 nM. Also, the concentration in solution in [7] (solubility) was 217 µg/mL (≈ 550 µM).

For the compound `CC(=O)CN1CC(C)(C)[C@@H](Oc2ccc(C#N)c(C(F)(F)F)c2)C1=O`, the fold change (FC) in [1] was 0.91. Also, the IC50 in series [9] turned out to be 266 nM.

Regarding `CC1(C)CN(C(C)(C)CO)C(=O)[C@@H]1Oc1ccc(C#N)c(C(F)(F)F)c1`, the fold change (FC) in series [1] was determined as 0.91. For the same compound, the IC50 in [9] was found to be 761 nM.

`CC(O)CN1CC(C)(C)[C@@H](Oc2ccc(C#N)c(C(F)(F)F)c2)C1=O` (stereo in doubt; 18) [listing 1 of 2 here]: in series [9], the half-inhibitory concentration (IC50) is 216 nM.

Turning to `CC1(C)CN(CCO)C(=O)[C@@H]1Oc1ccc(C#N)c(C(F)(F)F)c1`, the fold change (FC) in series [1] turned out to be 1.03. For the same compound, the IC50 in series [9] came to 263 nM.

`CC1(C)CN(CCC#N)C(=O)[C@@H]1Oc1cc(C(F)(F)F)c(C#N)cn1`: the inhibition in series [2] stood at 47%. The fold change (FC) in series [1] is 1.16.

As for `CNC(=O)CN1CC(C)(C)C(Oc2ccc(C#N)c(C(F)(F)F)c2)C1=O` (racemic), the inhibition in series [2] was found to be 23%. In addition, in series [1], the fold change (FC) stood at 0.85.

In the case of `CC(CO)N1CC(C)(C)[C@@H](Oc2ccc(C#N)c(C(F)(F)F)c2)C1=O` (stereo in doubt; 14) [listing 1 of 2 here], in [1], the fold change (FC) was found to be 1.06.

On to `CC(O)CN1CC(C)(C)[C@@H](Oc2ccc(C#N)c(C(F)(F)F)c2)C1=O` (single isomer, unassigned) [listing 2 of 2 here], for which the fold change (FC) in series [1] was 0.97.

Consider `CC(C)(O)CN1CC(C)(C)[C@@H](Oc2ccc(C#N)c(C(F)(F)F)c2)C1=O`, for which the inhibition in [2] stood at 29%. The fold change (FC) in series [1] was found to be 0.9.

`CC(O)CN1CC(C)(C)[C@@H](Oc2ccc(C#N)c(C(F)(F)F)c2)C1=O` (stereo in doubt; 18) [listing 2 of 2 here]: the fold change (FC) in series [1] is 0.99.

With `CC(CO)N1CC(C)(C)[C@@H](Oc2ccc(C#N)c(C(F)(F)F)c2)C1=O` (stereo in doubt; 14) [listing 2 of 2 here], in series [9], the concentration for half-maximal inhibition (IC50) amounted to 371 nM.

`CC1(C)CN(CCC#N)C(=O)[C@@H]1Oc1cnc(C#N)c(C(F)(F)F)c1`: the inhibition in [2] was determined as 52%. Also, the fold change (FC) in [1] amounted to 0.89.

Take `CC(CO)CN1CC(C)(C)[C@@H](Oc2ccc(C#N)c(C(F)(F)F)c2)C1=O` (stereo in doubt; 23) [listing 2 of 2 here]: the concentration for half-maximal inhibition (IC50) in series [9] is 371 nM.
